The record followed here is patent US12599628B2, “Mitigation of cryptosporidiosis using hydrogen peroxide-generating compositions” (Purina Animal Nutrition, LLC, priority 2021, dated 2026).

For experiment [1], the system named is C. parvum sporozoites. In words: In vitro Cryptosporidium exposure: C. parvum sporozoites mixed with treatment, added to HCT-8 cells, qPCR of COWP gene. The format is cell-based. The note with it: all treatment concentrations (0.26, 2.08, 3.125, 6.25, 12.5, 18.75, 25, 450 mg/L); p<0.05; FIG. 1. Here is the method: (§1) Sodium percarbonate (0.26, 2.08, 3.125, 6.25, 12.5, 18.75, 25, or 450 mg/L) was tested for its ability to neutralize C. parvum sporozoites in host epithelial cells. HCT-8 (human ileocecal adenocarcinoma) cells were grown in a monolayer to 85-90% confluency in RPMI-1640 medium. Freshly excysted, washed C. parvum sporozoites were mixed with a sodium percarbonate treatment and then added to HCT-8 cells at 1.25×10^6 sporozoites per monolayer. The cells were incubated with the sporozoites for 2 hours at 10% CO2, 37° C. Cells were then washed and incubated in fresh media for 22 hours. Infected, untreated cells served as a control. After incubation, infected cells were harvested and DNA was isolated. The number of C. parvum were quantified using qPCR for the Cryptosporidium oocyst wall protein (COWP) gene.

In experiment [2] the test system is C. parvum oocysts. In words: Mouse Cryptosporidium challenge, infection level in intestines by qPCR. The format is in vivo, Cryptosporidium parvum. Conditions: FIG. 2. Here is the method: Sodium percarbonate (“NPC”) at 0.26 mg/head, 12.5 mg/head, or 450 mg/head was tested in a Cryptosporidium challenge in mice. Eight-day-old ICR or CD-1 mice were divided into treatment (UA) and control (water) groups (n=10/group). Mice were infected with 1×10^4 C. parvum oocysts by oral inoculation. At the time of infection, and for every 12 hours thereafter, mice were treated with 100 μl per dose of NPC or water. A total of 8 doses per mouse were administered before termination of the challenge and collection of the intestines. The experiment was repeated twice (“Challenges I and II”). Infection levels were determined by qPCR against a known standard curve of C. parvum organisms.

Experiment [3] has as its system C. parvum oocysts (Iowa isolate). In words: Clinical calf cryptosporidiosis trial (oocyst shedding, body weight, feces, clinical scores). The format is in vivo, Cryptosporidium parvum. The note with it: for daily number of oocysts shed compared to control group: FIG. 3; for decrease in weight over the course of the trial: FIG. 5.
Experiment [4] relates to C. parvum sporozoites excysted from oocysts shed by infected calves. In words: Infectivity of Cryptosporidium oocysts shed by treated calves, excysted and tested on HCT-8 cells. The format is cell-based, Cryptosporidium parvum. Conditions: FIG. 8. The method, then: as §1, with “HCT-8” for “Sodium percarbonate (0.26, 2.08, 3.125, 6.25, 12.5, 18.75, 25, or 450 mg/L) was tested for its ability to neutralize C. parvum sporozoites in host epithelial cells. HCT-8”
Oocysts were collected from feces of calves in the control and treatment groups of Example 3 on multiple days during the duration of the study. The oocysts were excysted and analyzed to ensure equal excystation rates between the four treatment groups. HCT-8 cells were infected, harvested, and processed as described in Example 1.

As for `O=C([O-])[O-].O=C([O-])[O-].OO.OO.OO.[Na+].[Na+].[Na+].[Na+]` [sodium percarbonate], in experiment [1], the “reduction in infection by C. parvum sporozoites of HCT-8 cells compared to untreated control” value is on record as “significantly reduced infected”. The “dose dependence of percent reduction in C. parvum infection” value in experiment [2] (mice, 0.26, 12.5, 450 mg/head) is given as “increased as treatment dose increased”. Further, the “percent reduction in C. parvum infection compared to control” value in experiment [2] (mice, 450 mg/head, 8 doses every 12 hours, oral) is 89.9%. For the same compound, the “daily number of oocysts shed compared to control group” value in experiment [3] (calves, 500 mg NPC BID in milk replacer, p<0.05) is “significantly fewer oocysts on Days 4-6 and 9-10 PI”; in experiment [3] (calves, 1000 mg NPC BID in milk replacer, p<0.05), “significantly fewer oocysts on Days 6 and 10 PI”. Further, the “reduction of mean total number of oocysts shed over the trial compared to control group” value in experiment [3] (calves, 500 mg NPC BID, Days 3-10 PI, p<0.05, FIG. 4) is “about 24%”. In addition, the “decrease in weight over the course of the trial” value in experiment [3] (infected calves, H-NPC (1000 mg NPC BID)) was found to be 3.6%; in experiment [3] (infected calves, L-NPC (500 mg NPC BID)) it was 2.5%. The “weight loss compared to the control group” value in experiment [3] (infected calves, both NPC treatment groups (500 and 1000 mg BID)) is “tended to lose less weight”. The “ability of shed oocysts to infect HCT-8 cells compared with oocysts from untreated calves” value in experiment [4] (oocysts from calves treated with high-dose (1000 mg BID) sodium percarbonate) and in experiment [4] (oocysts from calves treated with low-dose (500 mg BID) sodium percarbonate) was “reduced ability to infect HCT-8 cells” throughout.
